Measured values taken from ChEMBL document CHEMBL5244246, “Recent advances in chemistry and bioactivity of marine cyanobacteria Moorea species” (Eur J Med Chem, 2020).
Values after ≈ are worked out from the molar mass of the structure shown.

Experiments:
[1] = Toxicity in brine shrimp assessed as lethality at 10 ppm relative to control; settings: artemia salina, read-out: Activity
[2] = test system: NCI-H460; assay: Cytotoxicity against human NCI-H460 cells; type: functional, cell-based
[3] = test system: N2a; assay: Cytotoxicity against mouse Neuro2a cells assessed as inhibition of cell growth; type: functional, cell-based; settings: Mus musculus, N2a
[4] = Toxicity in goldfish assessed as lethality at 5 ppm relative to control; settings: carassius auratus, read-out: Activity
[5] = species: Homo sapiens; assay: Inhibition of Voltage-gated sodium channel (unknown origin) at 3 ug/ml incubated for 18 hrs by cell-based bioassay relative to control; settings: dose 3.0 µg/ml
[6] = species: Homo sapiens; assay: Activation of Voltage-gated sodium channel (unknown origin) at 3 ug/ml incubated for 18 hrs by cell-based bioassay relative to control; settings: dose 3.0 µg/ml
[7] = test system: Nitzschia amabilis; assay: Growth inhibition of marine diatom assessed as inhibition; type: functional, organism-based
[8] = test system: L1210; assay: Cytotoxicity against mouse L1210 cells assessed as inhibition of cell growth; type: functional, cell-based
[9] = Toxicity in brine shrimp assessed as lethal dose; settings: artemia salina
[10] = Toxicity in brine shrimp; settings: artemia salina; read-out: ED50 (the source's name)
[11] = test system: HCT-116; assay: Cytotoxicity against human HCT-116 cells assessed as inhibition of cell growth; type: functional, cell-based
[12] = test system: KB; assay: Cytotoxicity against human KB cells; type: functional, cell-based
[13] = test system: LoVo; assay: Cytotoxicity against human LoVo cells; type: functional, cell-based
[14] = test system: HeLa; assay: Cytotoxicity against human HeLa cells assessed as inhibition of cell growth incubated for 48 hrs by WST-8 colorimetric assay; type: functional, cell-based
[15] = test system: HeLa; assay: Cytotoxicity against human HeLa cells assessed as inhibition of cell growth incubated for 72 hrs by MTT assay; type: functional, cell-based
[16] = Toxicity in goldfish assessed as survival rate at 5 ppm measured after 90 mins relative to control; settings: carassius auratus
[17] = molecular target: Protein kinase C delta type (Homo sapiens, UniProt Q05655); assay: Inhibition of [3H]-PDBu binding to PKCdelta C1B domain (unknown origin) by competitive binding assay
[18] = Toxicity in shrimp assessed as lethal dose; settings: palaemon paucidens
[19] = molecular target: Tubulin (Homo sapiens) (UniProt P68371+Q9H4B7+P0DPH7+P68366+Q13509+Q71U36+P04350+Q3ZCM7+P07437+P68363+Q9BQE3+Q6PEY2+Q13885+Q9BVA1+Q9BUF5); assay: Inhibition of colchicine binding to tubulin (unknown origin) assessed inhibition rate at 5 uM relative to control; type: protein-complex assay
[20] = molecular target: Tubulin; assay: Inhibition of tubulin polymerization (unknown origin) by tubulin polymerization assay; type: protein-complex assay, Homo sapiens
[21] = Antiproliferative activity against CHO-AUXB1 cells; type: toxicity, cell-based; settings: Chinese hamster (Cricetulus griseus)
[22] = test system: CA46; assay: Cytotoxicity against human CA46 cells assessed as inhibition of cell growth; type: functional, cell-based
[23] = test system: PANC-1; assay: Cytotoxicity against human PANC-1 cells; type: functional, cell-based
[24] = test system: MCF7; assay: Cytotoxicity against human MCF7 cells assessed as inhibition of cell growth; type: functional, cell-based
[25] = Toxicity in mouse assessed as lethal dose; settings: in vivo
[26] = test system: A549; assay: Cytotoxicity against human A549 cells assessed as cell growth inhibition; type: functional, cell-based
[27] = test system: SK-OV-3; assay: Cytotoxicity against human SK-OV-3 cells assessed as cell growth inhibition; type: functional, cell-based
[28] = test system: Plasmodium falciparum; assay: Antimalarial activity against Plasmodium falciparum assessed as growth inhibition; type: functional, organism-based
[29] = test system: P388; assay: Cytotoxicity against mouse P388 cells assessed as inhibition of cell growth; type: functional, cell-based
[30] = test system: HCT-8; assay: Cytotoxicity against human HCT-8 cells assessed as cell growth inhibition; type: functional, cell-based
[31] = test system: Pseudomonas aeruginosa; assay: Antibacterial activity against Pseudomonas aeruginosa PA01 assessed as inhibition of swarming at 100 ppm relative to control; type: functional
[32] = test system: PC-3; assay: Cytotoxicity against human PC-3 cells assessed as cell growth inhibition; type: functional, cell-based
[33] = test system: Echinoidea; assay: Antiproliferative activity against sea urchin fertilized embryo assessed as inhibition of cell division; type: functional, organism-based
[34] = Toxicity in goldfish assessed as lethal dose; settings: carassius auratus
[35] = test system: Neuro2a; assay: Inhibition of sodium channel in mouse Neuro2a cells; type: cell-based
[36] = test system: U-251; assay: Cytotoxicity against human U-251MG cells; type: functional, cell-based
[37] = read-out: LD50 (the source's name)

Chain of Protein kinase C delta type (Q05655 whole entry, the tested form may be a part): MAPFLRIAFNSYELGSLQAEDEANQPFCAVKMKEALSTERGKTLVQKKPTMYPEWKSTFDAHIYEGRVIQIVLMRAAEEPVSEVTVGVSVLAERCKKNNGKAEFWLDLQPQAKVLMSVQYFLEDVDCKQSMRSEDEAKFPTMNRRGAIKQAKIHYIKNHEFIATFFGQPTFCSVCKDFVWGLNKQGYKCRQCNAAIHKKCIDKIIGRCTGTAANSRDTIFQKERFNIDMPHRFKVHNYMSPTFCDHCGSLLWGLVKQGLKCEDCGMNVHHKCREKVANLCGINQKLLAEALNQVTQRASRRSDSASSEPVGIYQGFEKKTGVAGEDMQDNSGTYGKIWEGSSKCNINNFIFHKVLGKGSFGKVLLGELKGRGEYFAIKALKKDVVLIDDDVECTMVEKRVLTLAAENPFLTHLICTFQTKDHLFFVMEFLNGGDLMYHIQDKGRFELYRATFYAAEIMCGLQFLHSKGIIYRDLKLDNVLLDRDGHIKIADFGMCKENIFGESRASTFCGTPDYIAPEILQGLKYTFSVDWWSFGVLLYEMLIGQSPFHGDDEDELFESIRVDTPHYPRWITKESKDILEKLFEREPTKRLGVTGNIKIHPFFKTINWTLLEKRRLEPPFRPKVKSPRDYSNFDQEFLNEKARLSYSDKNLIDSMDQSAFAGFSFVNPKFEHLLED

Compound: C=CCCC/C(=C/Cl)CCC(C)/C=C/CCC(=O)NCC/C(=C\C(=O)N1C(=O)C=C[C@@H]1C)OC (stereo partly drawn)
- mortality at 10 ppm [1]: 25%
- IC50 [2]: 15000 nM
- IC50 [3]: 15000 nM
- mortality at 5 ppm [4]: 100%

Compound: CCCCCCCC[C@@H](C/C=C/CCC(=O)NC/C(=C/Cl)C1=CCC[C@@H](OC(C)=O)C1=O)OC
- IC50 [2]: 4000 nM
- inhibition [5]: 28%
- IC50 [3]: 4000 nM
- Activity [6]: 19%

Compound: CO[C@@H](CC[C@H](C)[C@@H](O)[C@@H](C)/C=C/C1=C(C(=O)O[C@@H]2CC(=O)O[C@@H]2C)C(=O)[C@H](C)CC1(C)C)c1cc(O)ccc1Br
- IC50 [7]: 1.2 µg/mL (≈ 1.89 µM)
- IC50 [8]: 4.6 µg/mL

Compound: O=CNC(CCCC#CC=C(Cl)Cl)CCCCCCC(Cl)Cl (stereo not drawn)
- LC50 [9, 37]: 1.7 µg/mL
- LC50 [10]: 1 µg/mL (≈ 2.58 µM)

Compound: CC[C@H](C)[C@H]1C(=O)N2CCC[C@H]2C(=O)O[C@H](C(C)(C)C)C[C@@H](C)C/C=C/C2=N[C@@H](CCC(=O)N[C@@H](Cc3ccc(OC)cc3)C(=O)N(C)[C@@H](C)C(=O)N1C)CS2 [APRATOXIN E]
- IC50 [11]: 100 nM

Compound: O=CNC(CCCC#CC=C(Cl)Cl)CCC/C=C/CC(Cl)Cl (stereo not drawn)
- LC50 [9, 37]: 1.7 µg/mL
- LC50 [10]: 1 µg/mL (≈ 2.6 µM)

Compound: CC[C@@H](C)[C@H]1C(=O)N2CCC[C@H]2C(=O)O[C@H](C(C)(C)C)C[C@@H](C)C[C@H](O)[C@H](C)C2=N[C@@H](/C=C(\C)C(=O)N[C@@H](Cc3ccc(OC)cc3)C(=O)N(C)[C@@H](C)C(=O)N1C)CS2
- IC50 [12]: 0.36 nM
- IC50 [13]: 0.36 nM
- IC50 [14]: 190 nM
- IC50 [3]: 1000 nM

Compound: CC/C(=C\C(=O)N(C)/C=C\CCC[C@H]1CC[C@H](C)C[C@@H](C)C(=O)N(C)[C@@H](CC(C)C)C(=O)O1)OC
- IC50 [15]: 2500 nM

Compound: CCCCC(C)C1C[C@@H](O)CCC[C@H](O)C[C@@H](O)C[C@@H](O)CCCC(O)CCCC(O)CCCC(O)CCCC(O)CCCC(O)CC(C)CC(=O)O1 (stereo partly drawn)
- IC50 [11]: 9900 nM

Compound: C#CCCC/C(=C/Cl)CCC(C)/C=C/CCC(=O)NCC/C(=C\C(=O)N1C(=O)C=C[C@@H]1C)OC (stereo partly drawn)
- survival at 1.5 h, 5 ppm [16]: 0%
- IC50 [2]: 15000 nM
- IC50 [3]: 15000 nM

Compound: C=C[C@@](C)(CCC=C(C)C)c1ccc2c3c1NC(=O)[C@@]3(O)C[C@@H](CO)NC(=O)[C@@H](C(C)C)N2
- Ki [17]: 940 nM
- LD33 [18]: 25 mg/kg
- IC50 [8]: 321000 nM

Compound: C=CCC(CC/C(C)=C/C=C/CC/C=C\C1CSC([C@@H]2C[C@@H]2C)=N1)OC (stereo partly drawn)
- inhibition [19]: 94%
- LC50 ([9]; read-out: LC50): 0.003 µg/mL
- IC50 [20]: 690 nM
- IC50 [8]: 9 nM
- IC50 [21]: 0.0068 µg/mL (≈ 0.0182 µM)
- IC50 [22]: 200 nM

Compound: C=C(CCNC(=O)CC/C=C/C[C@H](CCCCCCCC)OC)[C@@]12O[C@H]1[C@H](O[C@H]1OC[C@H](OC)[C@@H](O)[C@@H]1OC)C=C(C)C2=O
- IC50 [2]: 4000 nM
- inhibition [5]: 28%
- IC50 [3]: 4000 nM

Compound: CCCC[C@@H](C)C[C@@H](C)C(=O)N(C)[C@@H](Cc1ccc(OC)cc1)C(=O)N[C@H](C(=O)N(C)[C@H](C(=O)N1C[C@@H](O)C[C@H]1C(=O)N1C(=O)C=C[C@@H]1C)C(C)C)[C@@H](C)OC(C)=O
- IC50 [23]: 0.32 nM

Compound: C=CCC(CC/C=C/C=C/CC/C=C\C1CSC([C@@H]2C[C@@H]2C)=N1)OC (stereo partly drawn)
- inhibition [19]: 53%
- LC50 [9, 37]: 15600 nM
- IC50 [24]: 340 nM

Compound: O=CNC(CCCC#C/C=C\Cl)CCC/C=C\C=C(Cl)Cl (stereo not drawn)
- LC50 [9, 37]: 1.7 µg/mL
- LC50 [10]: 1 µg/mL (≈ 2.87 µM)

Compound: CC[C@H](C)[C@@H]1NC(=O)CNC(=O)c2csc(n2)[C@H](C(C)(C)O)OC(=O)C(C)(C)[C@H](CCCC(C)(Cl)Cl)OC(=O)c2csc1n2 [LYNGBYABELLIN A]
- IC50 [11]: 52.1 nM
- LD [25]: 2.4 mg/kg

Compound: CC[C@@H](C)[C@@H]1NC(=O)CN(C)C(=O)[C@@H](Cc2ccccc2)N(C)C(=O)[C@H](C)NC(=O)[C@@H]([C@@H](C)CC)OC(=O)/C(C)=C/C[C@H](O)[C@@H](C)C[C@H]([C@@H](C)CC)OC(=O)[C@H](C)N(C)C1=O
- IC50 [26]: 2.1 nM
- IC50 [27]: 2.1 nM
- IC50 [28]: 290 nM
- IC50 [29]: 2.1 nM
- IC50 [30]: 2.1 nM
- inhibition at 100 µg/mL [31]: 49%
- IC50 [32]: 2.1 nM

Compound: CCCCCCCC[C@@H](C/C=C/CCC(=O)NC/C(=C/Cl)[C@]12O[C@H]1[C@H](OC(C)=O)CCC2=O)OC
- IC50 [2]: 4000 nM
- inhibition [5]: 28%
- IC50 [3]: 4000 nM

Compound: C=C[C@@H]1CSC(C[C@@H](C)[C@@H](C)C[C@H](C)CCN(C)C(=O)[C@H](C)CC)=N1
- LC50 ([9]; read-out: LC50): 170 nM
- IC50 [33]: 25 nM
- LC50 [34]: 700 nM
- INH [35]: 1 nM

Compound: C=C1CC(=O)N[C@@H](C)C(=O)N(C)[C@@H](C(C)C)C(=O)NCC(=O)O[C@@H](/C(C)=C/C(C)=C/C(C)(C)C)[C@@H]1C [ANTILLATOXIN]
- LC50 [34]: 100 nM

Compound: CCCC[C@@H](C)C[C@@H](C)C(=O)N(C)[C@@H](Cc1ccc(OC)cc1)C(=O)N[C@H](C(=O)N(C)[C@H](C(=O)N1CCC[C@H]1C(=O)N1C(=O)C=C[C@@H]1C)C(C)C)[C@@H](C)OC(C)=O
- IC50 [36]: 36.8 nM

Compound: C=C[C@@](C)(CCC=C(C)C)c1ccc2c3c1NC(=O)[C@@]3(O)C[C@@H](CO)NC(=O)[C@@H](C(C)C)N2C
- Ki [17]: 1400 nM
- LD33 [18]: 89 mg/kg
- IC50 [8]: 98000 nM
